# Like-named read-outs stand apart in the source and are kept apart here.
# Tests used:
# [1] = biological target: T1, HCV NS3-4A serine protease (full-length NS3-4A protein, genotype 1a, strain HCV-1) (Hepatitis C virus genotype 1a, UniProt P26664); experiment: HCV NS3-4A protease assay; format: biochemical; conditions: Protease IC50
# T1 construct: using the full-length NS3-4A protein (genotype 1a, strain HCV-1)
# Procedure: The inhibitory activity of certain compounds of Table A against HCV NS3-4A serine protease is determined in a homogenous assay using the full-length NS3-4A protein (genotype 1a, strain HCV-1) and a commercially available internally-quenched fluorogenic peptide substrate as described by Taliani, M., et al. 1996 Anal. Biochem. 240:60-67, which is incorporated by reference in its entirety.
# [2] = Measurement of thermodynamic solubility; format: physicochemical; conditions: thermodynamic from solid, read-out: solubility in water
# Procedure: Thermodynamic solubility for the compounds of the invention listed in Table C is measured by a published literature procedure, e.g., Liping Zhou, et al., J. Pharm. Sci (2007) 96(11): 3052-3071.
# The DMSO stocks of test compounds previously dissolved in 25 μL of DMSO (˜10 mM) in mini-prep vial (MPV: Whatman, with PVDF filter and 0.45 μm pore size) chamber were evaporated via a GeneVac HT-4X evaporator for approximately 1 hour, at the guard temperature of 30° C. An aliquot of 250 μL buffer solution (pH 1.0 or 6.8) was added into each MPV chamber containing powders reconstituted from DMSO stock solutions. The MPV filter plungers were pushed down into the chamber until the membrane of the filter plunger slightly touched the surface of the buffer to promote equilibrium between the two compartments and to minimize the adsorption due to non-specific binding of samples during the subsequent 24-hr incubation (at 600 RPM at room temperature). Immediately after the 24-hr incubation, the plungers were further pushed down to the bottom of the chambers. More solution was pushed through the membrane and entered the plunger compartment. The filter/chamber assemblies were then put on a shaker for another 30 minutes at 600 RPM. Afterwards, filtrates were further diluted (1:10) with 50/50 acetonitrile/water solvent followed by a thorough mixing process. Both plates with diluted and undiluted filtrates were analyzed by HPLC and quantified against the four-point standard dilution curve of the same test compound (5 μM, 35 μM, 65 μM and 100 μM, respectively). In the current study, solubility reflects the average of triplicate samples tested at each pH.
# in vivo = experiment: in vivo; parameters: species or system Sprague Dawley rats; conditions: Sprague Dawley, rat; for Cmax: po, 10 mg/kg
# Procedure: Certain compounds of Table A and Comparative Example 1 (Compound A-7 of copending international patent application serial no. PCT/EP08/063,460) are administered as a solution orally via gavage at 10 mg/kg to Sprague Dawley rats at a dosing volume of 10 ml/kg. Samples are collected via a surgically implanted cannula at selected timepoints deemed necessary to characterize pharmacokinetic parameters. Blood samples are placed on wet ice and spun down to plasma within 5 minutes of timepoint collection. Plasma samples are frozen until bioanalytical analysis.
# Certain compounds of Table A and Comparative Example 1 are administered intravenously into a surgically implanted cannula as a solution at 1 mg/kg to Sprague Dawley rats at a dosing volume of […]. Samples are collected via another surgically implanted cannula at selected timepoints deemed necessary to characterize pharmacokinetic parameters. Blood samples are placed on wet ice and spun down to plasma within 5 minutes of timepoint collection. Plasma samples are frozen until bioanalytical analysis.
# [3] = pH 1, simulated gastric fluid, pH of about 1
# [4] = pH 6.8, aqueous buffer, pH of about 6.8
# T1 sequence (P26664 1658-1711): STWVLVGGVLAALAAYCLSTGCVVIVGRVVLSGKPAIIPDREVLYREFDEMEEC
# T1 sequence (P26664 1027-1657): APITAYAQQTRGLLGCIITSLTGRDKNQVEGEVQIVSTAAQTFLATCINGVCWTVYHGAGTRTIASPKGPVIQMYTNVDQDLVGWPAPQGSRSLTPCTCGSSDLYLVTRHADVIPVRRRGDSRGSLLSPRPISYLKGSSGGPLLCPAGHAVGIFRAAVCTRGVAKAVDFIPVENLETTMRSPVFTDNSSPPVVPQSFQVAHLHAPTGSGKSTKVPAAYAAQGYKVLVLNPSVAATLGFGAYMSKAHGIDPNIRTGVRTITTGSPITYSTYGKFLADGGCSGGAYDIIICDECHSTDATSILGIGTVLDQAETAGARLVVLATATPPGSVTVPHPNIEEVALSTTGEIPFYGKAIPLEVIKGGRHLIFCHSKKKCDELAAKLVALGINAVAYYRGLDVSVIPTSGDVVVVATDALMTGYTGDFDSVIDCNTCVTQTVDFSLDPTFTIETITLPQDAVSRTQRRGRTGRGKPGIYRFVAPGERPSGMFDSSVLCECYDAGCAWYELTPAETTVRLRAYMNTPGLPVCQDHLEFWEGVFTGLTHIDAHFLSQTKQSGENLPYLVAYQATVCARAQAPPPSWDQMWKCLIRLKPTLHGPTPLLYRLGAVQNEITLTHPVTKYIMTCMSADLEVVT
SMILES,IC50 [1],"solubility at 24 h [2, 3]","solubility at 24 h [2, 4]",Cmax (in vivo),bioavailability (in vivo)
"CC[C@@H]1C[C@]1(NC(=O)[C@@H]1C[C@@]2(CN1C(=O)[C@@H](NC(=O)[C@@H](NC(=O)[C@@H]1CCCCN1C(C)C)C1CCCCC1)C(C)(C)C)C(C)(C)C21CCC1)C(=O)NS(=O)(=O)C1(C)CC1 [Compound 70, (5R,8S)-7-[(2S)-2-{[(2S)-2-cyclohexyl-2-({[(2S)-1-isopropylpiperidin-2-yl]carbonyl}amino)acetyl]amino}-3,3-dimethylbutanoyl]-N-[(1R,2R)-2-ethyl-1-{[(1-methylcyclopropyl)sulfonyl]carbamoyl}cyclopropyl]-10,10-dimethyl-7-azadispiro[3.0.4.1]decane-8-carboxamide]",2 nM,≥ 100 µM,≥ 30 µM,130 nM,–
"CCCC1(S(=O)(=O)NC(=O)[C@@]2(NC(=O)[C@@H]3C[C@@]4(CN3C(=O)[C@@H](NC(=O)[C@@H](NC(=O)[C@@H]3CCCN3CC)C3CCCCC3)C(C)(C)C)C(C)(C)C43CCC3)C[C@H]2CC)CC1 [Compound 75, (5R,8S)-7-[(2S)-2-{[(2S)-2-cyclohexyl-2-({[(2S)-1-ethylpyrrolidin-2-yl]carbonyl}amino)acetyl]amino}-3,3-dimethylbutanoyl]-N-[(1R,2R)-2-ethyl-1-{[(1-propylcyclopropyl)sulfonyl]carbamoyl}cyclopropyl]-10,10-dimethyl-7-azadispiro[3.0.4.1]decane-8-carboxamide]",7 nM,≥ 100 µM,≥ 30 µM,289 nM,–
"CC[C@@H]1C[C@]1(NC(=O)[C@@H]1C[C@@]2(CN1C(=O)[C@@H](NC(=O)[C@@H](NC(=O)[C@@H]1CCCN1CC)C1CCCCC1)C(C)(C)C)C(C)(C)C21CCC1)C(=O)NS(=O)(=O)C1(C)CC1 [Compound 81, (5R,8S)-7-[(2S)-2-{[(2S)-2-cyclohexyl-2-({[(2S)-1-ethylpyrrolidin-2-yl]carbonyl}amino)acetyl]amino}-3,3-dimethylbutanoyl]-N-[(1R,2R)-2-ethyl-1-{[(1-methylcyclopropyl)sulfonyl]carbamoyl}cyclopropyl]-10,10-dimethyl-7-azadispiro[3.0.4.1]decane-8-carboxamide]",0.6 nM,≥ 100 µM,≥ 30 µM,692 nM,22%
"CC[C@@H]1C[C@]1(NC(=O)[C@@H]1C[C@@]2(CN1C(=O)[C@@H](NC(=O)[C@@H](NC(=O)[C@@H]1CCCCN1CC)C1CCCCC1)C(C)(C)C)C(C)(C)C21CCC1)C(=O)NS(=O)(=O)C1(C)CC1 [Compound 83, (5R,8S)-7-[(2S)-2-{[(2S)-2-cyclohexyl-2-({[(2S)-1-ethylpiperidin-2-yl]carbonyl}amino)acetyl]amino}-3,3-dimethylbutanoyl]-N-[(1R,2R)-2-ethyl-1-{[(1-methylcyclopropyl)sulfonyl]carbamoyl}cyclopropyl]-10,10-dimethyl-7-azadispiro[3.0.4.1]decane-8-carboxamide]",2.5 nM,≥ 100 µM,≥ 30 µM,578 nM,26%

# Source: US20110182850A1, “ORGANIC COMPOUNDS AND THEIR USES” (priority 2009, published 2011)
